Literature values, collected in patent US20090298834A1, “4-(AMINOMETHYL)CYCLOHEXANAMINE DERIVATIVES AS CALCIUM CHANNEL BLOCKERS” (priority 2008, published 2009).

Columns and labels:
[1] = system: T-type over L-type channels; details: cited from earlier work
[2] = system: spinal nerve ligation model of neuropathic pain; details: rats; Dogrul et al., Pain (2003); cited from earlier work

For `COCC(=O)O[C@]1(CCN(C)CCCc2nc3ccccc3[nH]2)CCc2cc(F)ccc2[C@@H]1C(C)C` [Mibefradil], the “fold selective for T-type over L-type channels” value [1] is given as 10-30 fold and the “anti-hyperalgesic activity in the spinal nerve ligation model” value [2] is given as “anti-hyperalgesic activity”.
